Reference: paper PMC11074101 (Cell Discovery, 2024)

Experiments:
Assay type in all cases: cell-based
MCHR1 WT = molecular target: T1, MCHR1 WT (Homo sapiens, UniProt Q99705); test: GloSensor cAMP assay, MCHR1 WT (Gαi); details: HEK293, GloSensor cAMP, normalized by WT receptor, mean ± S.E.M., n = 3 in triplicate
T1 construct: expressed in transfected cells; host or cells: HEK293
Description: (§1) The gene sequences encoding human MCHR1 (residues 70‒405) and MCHR2 (residues 1‒331, with L256^6.40Y mutation) were subcloned into pFastBac vector (Invitrogen) with an N-terminal haemagglutinin signal peptide (HA) and a thermostabilized BRIL fusion, followed by a C-terminal 15-amino acid linker, a LgBiT subunit and two MBPs to facilitate receptor expression and stability. The Gαi construct was designed with dominant-negative mutations S47N, G203A, A326S, and E245A to decrease the affinity of nucleotide-binding and stable Gαβγ complex. The mini-Gαq construct was designed with the C-terminal α-helix (αH5) of Gαq, which is critical for G protein coupling selectivity. The core of the construct, known as the Ras domain, is derived from Gαs. This design choice was made to enable the binding of the nanobody Nb35, which stabilizes the complex for cryo-EM analysis. […] Rat Gβ1 was constructed with a N-terminal 16× His-tag for purification and a C-terminal HiBiT to form a NanoBiT with LgBiT. […] The wild-type and mutants of MCHR1 and MCHR2 were constructed into the pcDNA6.0 vector […] for functional assays.
(§2) GloSensor cAMP assay was used to detect the downstream Gαi signal of MCHR1 using GloSensor cAMP Reagent (Promega).

MCHR1 F161(2.53)A = molecular target: T2, MCHR1 F161(2.53)A (Homo sapiens, UniProt Q99705, F92A); test: GloSensor cAMP assay, MCHR1 F161A; details: HEK293, mean ± S.E.M., n = 3 in triplicate
T2 construct: expressed in transfected cells; host or cells: HEK293
Description: as §1, §2

MCHR1 Q171(2.63)A = molecular target: T3, MCHR1 Q171(2.63)A (Homo sapiens, UniProt Q99705, Q102A); test: GloSensor cAMP assay, MCHR1 Q171A; details: HEK293, mean ± S.E.M., n = 3 in triplicate
T3 construct: expressed in transfected cells; host or cells: HEK293
Description: as §1, §2

MCHR1 L172(2.64)A = molecular target: T4, MCHR1 L172(2.64)A (Homo sapiens, UniProt Q99705, L103A); test: GloSensor cAMP assay, MCHR1 L172A; details: HEK293, mean ± S.E.M., n = 3 in triplicate
T4 construct: expressed in transfected cells; host or cells: HEK293
Description: as §1, §2

MCHR1 D192(3.32)A = molecular target: T5, MCHR1 D192(3.32)A (Homo sapiens, UniProt Q99705, D123A); test: GloSensor cAMP assay, MCHR1 D192A; details: HEK293, mean ± S.E.M., n = 3 in triplicate
T5 construct: expressed in transfected cells; host or cells: HEK293
Description: as §1, §2

MCHR1 Q196(3.36)A = molecular target: T6, MCHR1 Q196(3.36)A (Homo sapiens, UniProt Q99705, Q127A); test: GloSensor cAMP assay, MCHR1 Q196A; details: HEK293, mean ± S.E.M., n = 3 in triplicate
T6 construct: expressed in transfected cells; host or cells: HEK293
Description: as §1, §2

MCHR1 I254(ECL2)A = molecular target: T7, MCHR1 I254(ECL2)A (Homo sapiens, UniProt Q99705, I185A); test: GloSensor cAMP assay, MCHR1 I254A; details: HEK293, mean ± S.E.M., n = 3 in triplicate
T7 construct: expressed in transfected cells; host or cells: HEK293
Description: as §1, §2

MCHR1 F256(ECL2)A = molecular target: T8, MCHR1 F256(ECL2)A (Homo sapiens, UniProt Q99705, F187A); test: GloSensor cAMP assay, MCHR1 F256A; details: HEK293, mean ± S.E.M., n = 3 in triplicate
T8 construct: expressed in transfected cells; host or cells: HEK293
Description: as §1, §2

MCHR1 I265(45.52)A = molecular target: T9, MCHR1 I265(45.52)A (Homo sapiens, UniProt Q99705, I196A); test: GloSensor cAMP assay, MCHR1 I265A; details: HEK293, mean ± S.E.M., n = 3 in triplicate
T9 construct: expressed in transfected cells; host or cells: HEK293
Description: as §1, §2

MCHR1 Y341(6.51)A = molecular target: T10, MCHR1 Y341(6.51)A (Homo sapiens, UniProt Q99705, Y272A); test: GloSensor cAMP assay, MCHR1 Y341A; details: HEK293, mean ± S.E.M., n = 3 in triplicate
T10 construct: expressed in transfected cells; host or cells: HEK293
Description: as §1, §2

MCHR1 P354(ECL3)A = molecular target: T11, MCHR1 P354(ECL3)A (Homo sapiens, UniProt Q99705, P285A); test: GloSensor cAMP assay, MCHR1 P354A; details: HEK293, mean ± S.E.M., n = 3 in triplicate
T11 construct: expressed in transfected cells; host or cells: HEK293
Description: as §1, §2

MCHR1 Y362(7.35)A = molecular target: T12, MCHR1 Y362(7.35)A (Homo sapiens, UniProt Q99705, Y293A); test: GloSensor cAMP assay, MCHR1 Y362A; details: HEK293, mean ± S.E.M., n = 3 in triplicate
T12 construct: expressed in transfected cells; host or cells: HEK293
Description: as §1, §2

MCHR1 I366(7.39)A = molecular target: T13, MCHR1 I366(7.39)A (Homo sapiens, UniProt Q99705, I297A); test: GloSensor cAMP assay, MCHR1 I366A; details: HEK293, mean ± S.E.M., n = 3 in triplicate
T13 construct: expressed in transfected cells; host or cells: HEK293
Description: as §1, §2

MCHR1 Y370(7.42)A = molecular target: T14, MCHR1 Y370(7.42)A (Homo sapiens, UniProt Q99705, Y301A); test: GloSensor cAMP assay, MCHR1 Y370A; details: HEK293, mean ± S.E.M., n = 3 in triplicate
T14 construct: expressed in transfected cells; host or cells: HEK293
Description: (§3) The gene sequences encoding human MCHR1 (residues 70‒405) and MCHR2 (residues 1‒331, with L256^6.40Y mutation) were subcloned into pFastBac vector (Invitrogen) with an N-terminal haemagglutinin signal peptide (HA) and a thermostabilized BRIL fusion, followed by a C-terminal 15-amino acid linker, a LgBiT subunit and two MBPs to facilitate receptor expression and stability. The Gαi construct was designed with dominant-negative mutations S47N, G203A, A326S, and E245A to decrease the affinity of nucleotide-binding and stable Gαβγ complex. The mini-Gαq construct was designed with the C-terminal α-helix (αH5) of Gαq, which is critical for G protein coupling selectivity. The core of the construct, known as the Ras domain, is derived from Gαs. This design choice was made to enable the binding of the nanobody Nb35, which stabilizes the complex for cryo-EM analysis. […]
GloSensor cAMP assay was used to detect the downstream Gαi signal of MCHR1 using GloSensor cAMP Reagent (Promega). […] The sample mixtures were immediately measured with an EnVision multi-plate reader (PerkinElmer).
(§4) Concentration–response curves were evaluated with a three-parameter logistic equation. The significance was determined with one-way ANOVA with Tukey’s test, and P < 0.05 vs wild type was considered statistically significant.

MCHR2 WT = molecular target: T15, MCHR2 WT (Homo sapiens, UniProt Q969V1); test: IP-One IP1 accumulation assay, MCHR2 WT (Gαq); details: AD293, IP-One HTRF, mean ± S.E.M.
T15 construct: expressed in transfected cells; host or cells: AD293
Description: as §3
(§5) IP1 accumulation assay was applied for the detection of the downstream Gαq signal of MCHR2 using the IP-One HTRF kit (Cisbio). […] Before measurement, the samples were incubated at RT for 30 min and measured with EnVision multi-plate reader (PerkinElmer).
as §4

MCHR2 L89(2.60)A = molecular target: T16, MCHR2 L89(2.60)A (Homo sapiens, UniProt Q969V1, L89A); test: IP-One IP1 accumulation assay, MCHR2 L89A; details: n = 3 in triplicate
T16 construct: expressed in transfected cells; host or cells: AD293
Description: as §3, §5, §4

MCHR2 Q92(2.63)A = molecular target: T17, MCHR2 Q92(2.63)A (Homo sapiens, UniProt Q969V1, Q92A); test: IP-One IP1 accumulation assay, MCHR2 Q92A; details: n = 3 in triplicate
T17 construct: expressed in transfected cells; host or cells: AD293
Description: as §3, §5, §4

MCHR2 W93(2.64)A = molecular target: T18, MCHR2 W93(2.64)A (Homo sapiens, UniProt Q969V1, W93A); test: IP-One IP1 accumulation assay, MCHR2 W93A; details: n = 3 in triplicate
T18 construct: expressed in transfected cells; host or cells: AD293
Description: as §3, §5, §4

MCHR2 G96(ECL1)A = molecular target: T19, MCHR2 G96(ECL1)A (Homo sapiens, UniProt Q969V1, G96A); test: IP-One IP1 accumulation assay, MCHR2 G96A; details: n = 3 in triplicate
T19 construct: expressed in transfected cells; host or cells: AD293
Description: as §3, §5, §4

MCHR2 D113(3.32)A = molecular target: T20, MCHR2 D113(3.32)A (Homo sapiens, UniProt Q969V1, D113A); test: IP-One IP1 accumulation assay, MCHR2 D113A; details: n = 3 in triplicate
T20 construct: expressed in transfected cells; host or cells: AD293
Description: as §3, §5, §4

MCHR2 Q117(3.36)A = molecular target: T21, MCHR2 Q117(3.36)A (Homo sapiens, UniProt Q969V1, Q117A); test: IP-One IP1 accumulation assay, MCHR2 Q117A; details: n = 3 in triplicate
T21 construct: expressed in transfected cells; host or cells: AD293
Description: as §3, §5, §4

[1] = AD293, IP-One HTRF, 37 °C 1 h, mean ± S.E.M., P < 0.0001 vs WT

T19 sequence (Q969V1 whole entry G96A): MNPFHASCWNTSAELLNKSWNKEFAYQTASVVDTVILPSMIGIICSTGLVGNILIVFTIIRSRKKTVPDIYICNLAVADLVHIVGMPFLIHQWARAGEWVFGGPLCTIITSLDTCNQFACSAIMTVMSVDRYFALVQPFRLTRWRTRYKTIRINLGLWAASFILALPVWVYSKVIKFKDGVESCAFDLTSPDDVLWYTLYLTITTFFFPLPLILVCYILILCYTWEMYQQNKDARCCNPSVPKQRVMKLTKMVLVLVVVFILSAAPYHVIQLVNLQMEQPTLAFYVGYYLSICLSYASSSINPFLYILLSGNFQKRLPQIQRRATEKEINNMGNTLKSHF
T17 sequence (Q969V1 whole entry Q92A): as the sequence (Q969V1 whole entry G96A) above, with Q92A, A96G counted along it
T16 sequence (Q969V1 whole entry L89A): as the sequence (Q969V1 whole entry G96A) above, with L89A, A96G counted along it
T21 sequence (Q969V1 whole entry Q117A): as the sequence (Q969V1 whole entry G96A) above, with A96G, Q117A counted along it
T18 sequence (Q969V1 whole entry W93A): as the sequence (Q969V1 whole entry G96A) above, with W93A, A96G counted along it
T20 sequence (Q969V1 whole entry D113A): as the sequence (Q969V1 whole entry G96A) above, with A96G, D113A counted along it
T15 sequence (Q969V1 whole entry): as the sequence (Q969V1 whole entry G96A) above, with A96G counted along it
T14 sequence (Q99705 whole entry Y301A): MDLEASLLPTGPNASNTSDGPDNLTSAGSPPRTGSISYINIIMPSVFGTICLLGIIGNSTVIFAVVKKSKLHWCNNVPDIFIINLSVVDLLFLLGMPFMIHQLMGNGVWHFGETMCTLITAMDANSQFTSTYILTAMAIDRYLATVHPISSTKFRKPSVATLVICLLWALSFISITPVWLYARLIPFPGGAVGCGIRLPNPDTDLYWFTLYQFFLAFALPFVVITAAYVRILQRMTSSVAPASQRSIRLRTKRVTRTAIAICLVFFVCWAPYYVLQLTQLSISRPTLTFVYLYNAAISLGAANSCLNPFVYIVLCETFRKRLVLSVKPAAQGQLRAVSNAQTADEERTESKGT
T8 sequence (Q99705 whole entry F187A): as the sequence (Q99705 whole entry Y301A) above, with F187A, A301Y counted along it
T13 sequence (Q99705 whole entry I297A): as the sequence (Q99705 whole entry Y301A) above, with I297A, A301Y counted along it
T5 sequence (Q99705 whole entry D123A): as the sequence (Q99705 whole entry Y301A) above, with D123A, A301Y counted along it
T6 sequence (Q99705 whole entry Q127A): as the sequence (Q99705 whole entry Y301A) above, with Q127A, A301Y counted along it
T4 sequence (Q99705 whole entry L103A): as the sequence (Q99705 whole entry Y301A) above, with L103A, A301Y counted along it
T12 sequence (Q99705 whole entry Y293A): as the sequence (Q99705 whole entry Y301A) above, with Y293A, A301Y counted along it
T11 sequence (Q99705 whole entry P285A): as the sequence (Q99705 whole entry Y301A) above, with P285A, A301Y counted along it
T9 sequence (Q99705 whole entry I196A): as the sequence (Q99705 whole entry Y301A) above, with I196A, A301Y counted along it
T3 sequence (Q99705 whole entry Q102A): as the sequence (Q99705 whole entry Y301A) above, with Q102A, A301Y counted along it
T1 sequence (Q99705 whole entry): as the sequence (Q99705 whole entry Y301A) above, with A301Y counted along it
T7 sequence (Q99705 whole entry I185A): as the sequence (Q99705 whole entry Y301A) above, with I185A, A301Y counted along it
T2 sequence (Q99705 whole entry F92A): as the sequence (Q99705 whole entry Y301A) above, with F92A, A301Y counted along it
T10 sequence (Q99705 whole entry Y272A): as the sequence (Q99705 whole entry Y301A) above, with Y272A, A301Y counted along it

## CSCC[C@@H]1NC(=O)[C@@H](NC(=O)[C@H](CCCNC(=N)N)NC(=O)[C@H](CC(C)C)NC(=O)[C@H](CCSC)NC(=O)[C@H](CC(=O)O)NC(=O)[C@H](Cc2ccccc2)NC(=O)[C@@H](N)CC(=O)O)CSSC[C@@H](C(=O)N[C@@H](Cc2c[nH]c3ccccc23)C(=O)N[C@@H](CCC(N)=O)C(=O)N[C@H](C(=O)O)C(C)C)NC(=O)[C@@H]2CCCN2C(=O)[C@H](CCCNC(=N)N)NC(=O)[C@H](Cc2ccc(O)cc2)NC(=O)[C@H](C(C)C)NC(=O)[C@H](CCCNC(=N)N)NC(=O)CNC(=O)[C@H](CC(C)C)NC1=O [MCH, Melanin-concentrating hormone]
MCHR1 WT
  Emax: 100%
MCHR1 F161(2.53)A
  Emax: 124 ± 1%
MCHR1 Q171(2.63)A
  Emax: 57 ± 6%
MCHR1 L172(2.64)A
  Emax: 107 ± 3%
MCHR1 D192(3.32)A
  Emax: 40 ± 7%
MCHR1 Q196(3.36)A
  Emax: 97 ± 1%
MCHR1 I254(ECL2)A
  Emax: 98 ± 3%
MCHR1 F256(ECL2)A
  Emax: 106 ± 2%
MCHR1 I265(45.52)A
  Emax: 88 ± 3%
MCHR1 Y341(6.51)A
  Emax: 97 ± 1%
MCHR1 P354(ECL3)A
  Emax: 109 ± 1%
MCHR1 Y362(7.35)A
  Emax: 95%
MCHR1 I366(7.39)A
  Emax: 90 ± 5%
MCHR1 Y370(7.42)A
  Emax: -21 ± 4%
MCHR2 WT; 37 °C 1 h, three independent experiments in triplicate
  EC50: 0.00316 µM
MCHR2 WT; normalized by WT receptor, n = 3 in triplicate
  Emax: 100%
MCHR2 L89(2.60)A; AD293, IP-One HTRF, 37 °C 1 h, mean ± S.E.M., P 0.1322 vs WT
  EC50: 0.00912 µM
MCHR2 L89(2.60)A; AD293, mean ± S.E.M.
  Emax: 104 ± 2%
MCHR2 Q92(2.63)A; [1]
  EC50: 9.12 µM
MCHR2 Q92(2.63)A; AD293, mean ± S.E.M.
  Emax: 25 ± 2%
MCHR2 W93(2.64)A; [1]
  EC50: 6.03 µM
MCHR2 W93(2.64)A; AD293, mean ± S.E.M.
  Emax: 91 ± 1%
MCHR2 G96(ECL1)A; AD293, IP-One HTRF, 37 °C 1 h, mean ± S.E.M., P 0.0012 vs WT
  EC50: 0.0155 µM
MCHR2 G96(ECL1)A; AD293, mean ± S.E.M.
  Emax: 96%
MCHR2 D113(3.32)A; [1]
  EC50: 2.04 µM
MCHR2 D113(3.32)A; AD293, mean ± S.E.M.
  Emax: 101 ± 2%
MCHR2 Q117(3.36)A; AD293, IP-One HTRF, 37 °C 1 h, mean ± S.E.M., P 0.0352 vs WT
  EC50: 0.0107 µM
MCHR2 Q117(3.36)A; AD293, mean ± S.E.M.
  Emax: 96 ± 2%
